Patent publication US20190119282A1, “IMIDAZOPYRIDAZINES USEFUL AS INHIBITORS OF THE PAR-2 SIGNALING PATHWAY” (Vertex Pharmaceuticals Incorporated, priority 2013, published 2019)
pIC50: −log10 of the molar value.

Key:
[1] = tested on: UTP-stimulated Ca2+ response in HT-29 cells; experiment: Ca FLIPR TETRA assay, ANTAGONIST mode, stimulation with 0.6 μM UTP; type: cell-based, human; conditions: Homo sapiens; HT-29 cells, antagonist mode, stimulation with 0.6 μM UTP
How it was run: (§1)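 Inhibition of activator-evoked Ca2+ flux was recorded on FLIPR Tetra in HT-29 cells after 30 min compound exposure at r.t. A prior read checked whether compounds alone triggered Ca2+ release.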

[2] = biological target: T1, PAR2 (HT-29 cells, SLIGKV activation) (Homo sapiens, UniProt P55085); experiment: Ca FLIPR TETRA assay, ANTAGONIST mode, stimulation with 8 μM SLIGKV; type: cell-based; conditions: HT-29 cells, antagonist mode, stimulation with 8 μM SLIGKV
T1 construct: host or cells: HT-29 cells
T1 sequence (P55085 26-397): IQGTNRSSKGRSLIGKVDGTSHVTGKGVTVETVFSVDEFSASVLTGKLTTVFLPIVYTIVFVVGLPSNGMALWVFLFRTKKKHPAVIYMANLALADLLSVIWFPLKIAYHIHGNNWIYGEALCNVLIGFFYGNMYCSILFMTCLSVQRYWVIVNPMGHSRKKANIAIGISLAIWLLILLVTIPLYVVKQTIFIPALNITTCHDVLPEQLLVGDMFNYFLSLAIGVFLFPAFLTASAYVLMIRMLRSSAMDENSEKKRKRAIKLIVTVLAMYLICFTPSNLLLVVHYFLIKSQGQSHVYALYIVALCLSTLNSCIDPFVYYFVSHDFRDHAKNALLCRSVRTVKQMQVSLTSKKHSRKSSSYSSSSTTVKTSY
How it was run: as §1

[3] = biological target: T2, PAR2 (HT-29 cells, trypsin activation) (Homo sapiens, UniProt P55085); experiment: Ca FLIPR TETRA assay, ANTAGONIST mode, stimulation with 3.1 U/mL trypsin; type: cell-based; conditions: HT-29 cells, antagonist mode, stimulation with 3.1 U/mL trypsin
T2 construct: host or cells: HT-29 cells
T2 sequence (P55085 26-397): T1 sequence (P55085 26-397)
How it was run: as §1

[4] = tested on: Thrombin-stimulated Ca2+ response in HT-29 cells; experiment: Ca FLIPR TETRA assay, ANTAGONIST mode, stimulation with 1 U/mL Thrombin; type: cell-based, human; conditions: Homo sapiens; HT-29 cells, antagonist mode, stimulation with 1 U/mL Thrombin
How it was run: as §1

Compound | pIC50 [1] | pIC50 [2] | pIC50 [3] | pIC50 [4]
CC(C)(C)c1cc(-c2ccc(F)c(F)c2)nn2cc(C(=O)N3CCNC(=O)C3(C)C)nc12 [Compound I-352] | < 6.00 | 8.92 | 8.82 | < 6.00
CC(C)c1cc(-c2ccc(Cl)cc2)nn2cc(C(=O)N3CCNC(=O)C3(C)C)nc12 [Compound I-353] | < 6.00 | 8.62 | 8.52 | < 6.00
CC(C)c1cc(-c2ccc(Cl)c(F)c2)nn2cc(C(=O)N3CCNC(=O)C3(C)C)nc12 [Compound I-354] | < 6.00 | 8.92 | 8.89 | < 6.00
Cc1cc(C(=O)N2CCN(C(=O)c3cn4nc(-c5ccc(F)cc5)cc(C(C)(F)F)c4n3)C(C)(C)C2)[nH]n1 [Compound I-355] | < 6.00 | 8.02 | 8.15 | < 6.00
CC(C)(C)c1cc(-c2ccc(F)cc2)nn2cc(C(=O)N3CCN(C(=O)c4ccn[nH]c4=O)CC3(C)C)nc12 [Compound I-356] | < 6.00 | 7.55 | 7.82 | < 6.00
CC(C)(C)c1cc(-c2ccc(F)cc2)nn2cc(C(=O)N3CCN(C(=O)c4n[nH]c(=O)[nH]4)CC3(C)C)nc12 [Compound I-357] | 6.05 | 8.48 | 8.36 | < 6.00
CC(C)(C)c1cc(-c2ccc(C(F)(F)F)cc2)nn2cc(C(=O)N3CCN(c4c[nH]cn4)C(=O)C3(C)C)nc12 [Compound I-358] | < 6.00 | 7.95 | 8.36 | < 6.00
CC(C)(C)c1cc(-c2ccc(F)cc2)nn2cc(C(=O)N3CCN(c4cn[nH]n4)C(=O)C3(C)C)nc12 [Compound I-359] | < 6.00 | 9.00 | 8.96 | < 6.00
Cc1ccc(-c2cc(C(C)(C)C)c3nc(C(=O)N4CCN(c5c[nH]cn5)C(=O)C4(C)C)cn3n2)cc1F [Compound I-360] | < 6.00 | 8.34 | 8.52 | < 6.00
CC(C)(C)c1cc(-c2ccc(Cl)cc2)nn2cc(C(=O)N3CCNC(=O)C3(C)C)nc12 [Compound I-361] | < 6.00 | 8.57 | 8.66 | < 6.00
CC(C)(F)c1cc(-c2ccc(F)cc2)nn2cc(C(=O)N3CCNC(=O)C3(C)C)nc12 [Compound I-362] | < 6.00 | 7.89 | 7.51 | < 6.00
CC(C)c1cc(-c2ccc(F)c(Cl)c2)nn2cc(C(=O)N3CCNC(=O)C3(C)C)nc12 [Compound I-363] | < 6.00 | 8.27 | 8.55 | < 6.00
Cc1ccc(-c2cc(C(C)(C)C)c3nc(C(=O)N4CCN(c5cn[nH]c5)C(=O)C4(C)C)cn3n2)cc1 [Compound I-364] | < 6.00 | 8.82 | 8.77 | < 6.00
Cc1ccc(-c2cc(C(C)(C)C)c3nc(C(=O)N4CCN(c5cn[nH]c5)C(=O)C4(C)C)cn3n2)cc1F [Compound I-365] | < 6.00 | 8.96 | 8.82 | < 6.00
Cc1nc(N2CCN(C(=O)c3cn4nc(-c5ccc(F)cc5)cc(C(C)(C)C)c4n3)C(C)(C)C2=O)c[nH]1 [Compound I-367] | < 6.00 | 8.59 | 8.38 | < 6.00
Cc1ccc(-c2cc(C(C)(C)C)c3nc(C(=O)N4CCN(c5c[nH]c(C)n5)C(=O)C4(C)C)cn3n2)cc1 [Compound I-368] | < 6.00 | 8.28 | 8.17 | < 6.00
Cc1nc(N2CCN(C(=O)c3cn4nc(-c5ccc(C)c(F)c5)cc(C(C)(C)C)c4n3)C(C)(C)C2=O)c[nH]1 [Compound I-369] | < 6.00 | 8.27 | 8.14 | < 6.00
CC(C)c1cc(-c2ccc(C(F)(F)F)cc2)nn2cc(C(=O)N3CCN(C(=O)c4ncccn4)CC3(C)C)nc12 [Compound I-370] | < 6.00 | 8.11 | 7.98 | < 6.00
CC(C)c1cc(-c2ccc(C(F)(F)F)cc2)nn2cc(C(=O)N3CCN(C(=O)C4CC(C)(O)C4)CC3(C)C)nc12 (centres unmarked) [Compound I-371] | < 6.00 | 8.89 | 8.80 | < 6.00

Compound | pIC50 [1] | pIC50 [2] | pIC50 [3] | pIC50 [4]
Cc1nc(C(=O)N2CCN(C(=O)c3cn4nc(-c5ccc(C(F)(F)F)cc5)cc(C(C)C)c4n3)C(C)(C)C2)c[nH]1 [Compound I-372] | < 6.00 | 8.35 | 8.25 | < 6.00
Cc1ccc(-c2cc(C(C)C)c3nc(C(=O)N4CCN(C(=O)c5ncccn5)CC4(C)C)cn3n2)cc1F [Compound I-373] | < 6.00 | 8.19 | 8.09 | < 6.00
Cc1ccc(-c2cc(C(C)C)c3nc(C(=O)N4CCN(C(=O)c5ccn[nH]5)CC4(C)C)cn3n2)cc1F [Compound I-374] | < 6.00 | 8.85 | 8.80 | < 6.00
Cc1ccc(-c2cc(C(C)C)c3nc(C(=O)N4CCN(C(=O)c5ccccn5)CC4(C)C)cn3n2)cc1F [Compound I-375] | < 6.00 | 8.64 | 8.42 | < 6.00
Cc1nc(C(=O)N2CCN(C(=O)c3cn4nc(-c5ccc(C)c(F)c5)cc(C(C)C)c4n3)C(C)(C)C2)c[nH]1 [Compound I-376] | < 6.00 | 8.70 | 8.49 | < 6.00
Cc1cc(-c2cc(C(C)C)c3nc(C(=O)N4CCN(C(=O)c5ncccn5)CC4(C)C)cn3n2)ccc1F [Compound I-377] | < 6.00 | 7.72 | 7.54 | < 6.00
Cc1cc(-c2cc(C(C)C)c3nc(C(=O)N4CCN(C(=O)C5CC(C)(O)C5)CC4(C)C)cn3n2)ccc1F (centres unmarked) [Compound I-378] | < 6.00 | 8.30 | 8.14 | < 6.00
Cc1cc(-c2cc(C(C)C)c3nc(C(=O)N4CCN(C(=O)c5ccccn5)CC4(C)C)cn3n2)ccc1F [Compound I-379] | < 6.00 | 8.03 | 7.98 | < 6.00
Cc1nc(C(=O)N2CCN(C(=O)c3cn4nc(-c5ccc(F)c(C)c5)cc(C(C)C)c4n3)C(C)(C)C2)c[nH]1 [Compound I-380] | < 6.00 | 8.08 | 8.13 | < 6.00
Cc1cc(-c2cc(C(C)(C)C)c3nc(C(=O)N4CCN(C(=O)c5ccn[nH]5)CC4(C)C)cn3n2)ccc1F [Compound I-381] | < 6.00 | 8.89 | 8.92 | < 6.00
Cc1cc(C(=O)N2CCN(C(=O)c3cn4nc(-c5ccc(F)c(C)c5)cc(C(C)(C)C)c4n3)C(C)(C)C2)[nH]n1 [Compound I-382] | < 6.00 | 9.22 | 9.15 | < 6.00
Cc1nc(C(=O)N2CCN(C(=O)c3cn4nc(-c5ccc(F)c(C)c5)cc(C(C)(C)C)c4n3)C(C)(C)C2)c[nH]1 [Compound I-383] | < 6.00 | 8.72 | 8.54 | < 6.00
Cc1cc(-c2cc(C(C)(C)C)c3nc(C(=O)N4CCN(C(=O)C5CC(C)(O)C5)CC4(C)C)cn3n2)ccc1F (centres unmarked) [Compound I-384] | < 6.00 | 9.22 | 9.10 | < 6.00
Cc1nnc(C(=O)N2CCN(C(=O)c3cn4nc(-c5ccc(F)c(C)c5)cc(C(C)(C)C)c4n3)C(C)(C)C2)o1 [Compound I-385] | < 6.00 | 8.66 | 8.37 | < 6.00
Cc1cc(-c2cc(C(C)(C)C)c3nc(C(=O)N4CCN(C(=O)c5ccccn5)CC4(C)C)cn3n2)ccc1F [Compound I-386] | < 6.00 | 8.77 | 8.59 | < 6.00
Cc1cc(-c2cc(C(C)(C)C)c3nc(C(=O)N4CCN(C(=O)c5ncccn5)CC4(C)C)cn3n2)ccc1F [Compound I-387] | < 6.00 | 8.85 | 8.51 | < 6.00
Cc1cc(-c2cc(C(C)C)c3nc(C(=O)N4CCN(c5c[nH]cn5)C(=O)C4(C)C)cn3n2)ccc1F [Compound I-388] | < 6.00 | 7.90 | 7.81 | < 6.00
Cc1nc(N2CCN(C(=O)c3cn4nc(-c5ccc(F)c(C)c5)cc(C(C)C)c4n3)C(C)(C)C2=O)c[nH]1 [Compound I-389] | < 6.00 | 7.70 | 7.60 | < 6.00
Cc1cc(C(=O)N2CCN(C(=O)c3cn4nc(-c5ccc(C(F)(F)F)cc5)cc(C(C)C)c4n3)C(C)(C)C2)[nH]n1 [Compound I-390] | < 6.00 | 9.00 | 8.89 | < 6.00
